Measured values: article PMC10238420, “Altered Signaling and Desensitization Responses in PTH1R Mutants Associated with Eiken Syndrome” (Communications Biology, 2023)
Where two headings read alike, the source gives them in different places.

Experiments:
[1] = molecular target: T1, PTH1R-E35K (Homo sapiens, UniProt Q03431, E35K); test: Glosensor cAMP agonist dose-response, Gs22a cells; format: cell-based; conditions: % of maximum response of each ligand on PTH1R-WT; five experiments
[2] = molecular target: T2, PTH1R-H223R (Homo sapiens, UniProt Q03431, H223R); test: Glosensor cAMP agonist dose-response, Gs22a cells; format: cell-based; conditions: % of maximum response of each ligand on PTH1R-WT; five experiments
[3] = molecular target: T3, PTH1R-R485X (Homo sapiens, UniProt Q03431); test: cell-based
[4] = molecular target: T4, PTH1R-WT (Homo sapiens, UniProt Q03431); test: Glosensor cAMP agonist dose-response, Gs22a cells; format: cell-based; conditions: % of maximum response of each ligand on PTH1R-WT; five experiments
[5] = molecular target: T5, PTH1R-Y134S (Homo sapiens, UniProt Q03431, Y134S); test: Glosensor cAMP agonist dose-response, Gs22a cells; format: cell-based; conditions: % of maximum response of each ligand on PTH1R-WT; five experiments
[6] = molecular target: T4, PTH1R-WT; test: cAMP time course with ligand and after ligand washout (duration), Gs22a cells; format: cell-based; conditions: 1 nM, 90 min washout; all PTH1R variants
Method: Data are means (±SEM) of five (a), four (b, c, e) or three (d) separate experiments.
(§8) Fig. 7 Effects of Eiken mutation on duration of cAMP signaling and desensitization to ligand re-challenge. a Assays were performed in Gs22a cells transiently transfected to express PTH1R-WT or a mutant PTH1R. a Duration of initial cAMP signaling response. […] Response to Ligand rechallenge. After the washout-periods shown in panel a, the cells were rechallenged with the same ligand (1.0 nM) for 60 min and cAMP accumulation was assessed. […] P values indicate comparison by Student’s t test to pre-vehicle treatment: Data are means ± SEM from four separate experiments each in duplicate (b) or quadruplicate (a).
Basal and ligand-stimulated cAMP signaling was assessed via the glosensor cAMP reporter in Gs22a cells transiently transfected to express either the WT or a mutant hPTH1R in white 96-well plates at room temperature. […] The plate was then placed into a PerkinElmer Envision plate reader and luminescence, as counts per second (cps), was measured at 2-min intervals for 15 min, during which time luciferin uptake occurred and luminescence reached a near steady-state baseline level. The plate was then removed from the plate reader, CIDB alone (vehicle) or containing a test ligand at varying concentrations was added, and luminescence was again measured at 2 min intervals for an additional 30–60 min. […]

[7] = tested on: PTH1R-R485X; conditions: 1 nM; vs vehicle-pre-treated cells
Method: as §8
The cells were then rinsed twice with CIDB and incubated in CIDB for 90 min (washout phase); then rinsed again and incubated in CIDB/luciferin for an additional 10 min, and then treated with vehicle or rechallenged with the same ligand (1.0 nM) and incubations continued for a final 60-min (ligand re-challenge phase); luminescence was monitored at 2 min-intervals during each phase of incubation.

[8] = molecular target: T3, PTH1R-R485X; format: binding; conditions: % of maximum SB at PTHR1-WT; four experiments
Method: Bar heights indicate the means ± SEM of three individual experiments represented by the data points. […] Data are means (±SEM) of three (a) or four experiments.
(§9) Binding was assessed on confluent monolayers of transiently transfected intact Gs22a cells in 96-well plates. Binding reactions contained HB and 20,000–30,000 cpm/well of radioligand. […] The mixtures were then removed and the cells were rinsed twice with HB and lysed with 5 N NaOH and the lysates were counted for gamma irradiation in a gamma counter. […] After incubation for 2 h at 4 °C, the mixtures were removed, the cells were rinsed twice with HB, lysed with 5N NaOH, and the lysates were counted for gamma irradiation.
The fit values of max i mum SB, as r adi oac t i v e c ount s per mi nut e (cpm), with non-specif ic binding (1, 529±418

[9] = molecular target: T4, PTH1R-WT; test: Competition binding vs 125I-LA-PTH*, intact Gs22a cells; conditions: % of maximum SB at PTHR1-WT; four experiments
Source text: (§1) Supplemental Table 4. Competition Binding Data.
(§2) Ligand-binding properties of PTH1R variants
(§3) Suppl ement al Tabl e 4. Radi ol i gand Bi n d i n g Dat a. […]
(§4) as compet i t or. […] The fit values of […]
(§5) Dat a ar e means (±SEM) of f our exper i ment s; p val ues ar e St udent ’s T t est compar i sons t o

[10] = molecular target: T2, PTH1R-H223R; test: as above; conditions: % of maximum SB at PTHR1-WT; four experiments
Source text: as §1, §2, §3, §4, §5

[11] = molecular target: T5, PTH1R-Y134S; test: as above; conditions: % of maximum SB at PTHR1-WT; four experiments
Source text: as §1, §2, §3, §4, §5

[12] = molecular target: T1, PTH1R-E35K; test: as above; conditions: four experiments
Source text: as §1, §2, §3, §4, §5

[13] = tested on: PTH1R-R485X
Method: as §9

[14] = molecular target: T1, PTH1R-E35K; test: Total binding of 125I-PTHrP(1-36), intact Gs22a cells
Method: as §9

[15] = molecular target: T5, PTH1R-Y134S; test: as above
Method: as §9

[16] = molecular target: T2, PTH1R-H223R; test: as above
Method: as §9

[17] = tested on: PTH1R-R485X; conditions: 30 nM TMR ligand (unlabeled: 10 nM), 30 min
Method: (§6) Images are representative of three independent experiments.
Data are representative of three independent experiments (a-d); or means ± SEM of three or four independent experiments (e, f). Bar heights in graphs of panels b and d indicate the means ± SEM of counts from the five cells shown by the individual data points. Scale bars in a and c indicate 10 μm.
Ligand-induced recruitment of β-arrestin2^YFP was assessed in GBR-24 cells, which are HEK293/glosensor (Gs22A)-derived cells stably expressing β-arrestin2^YFP [42]. The cells in six-well plates were transiently transfected with plasmid DNA encoding PTH1R-WT or mutant derivative, and 24 hours later seeded onto glass coverslips in 6-well plates. […] In some experiments, the cells were imaged by confocal microscopy using a Leica DMi8 inverted Microscope at ×400 magnification, and the images were processed using Leica Application Suite X (LAS X) software. Regions of interest were digitally expanded 3-5X to improve views.
Quantification of β-arrestin2^YFP clusters was performed using ImageJ software (vers. 1.53)[67]. The color images were converted to 8 bit and then 16 bit gray-scale, and the threshold was adjusted on a cell-by-cell basis to show distinct particles (interpreted as clusters of β-arrestin2^YFP in intracellular vesicles); threshold values ranged from ~ 20-60. The free-hand tool was used to define the area analyzed for each cell, and the Analyze Particle tool was used to obtain the number of particles, the total area, and the mean gray scale (intensity) of each particle for each cell.

[18] = molecular target: T4, PTH1R-WT; test: Fluorescence microscopy of ligand internalization and β-arrestin2YFP recruitment, GBR-24 cells, ImageJ; format: cell-based; conditions: 30 nM TMR ligand (unlabeled: 10 nM), 30 min
Source text: as §6
(§7) Scale bars in a and c indicate 10 μm.

[19] = molecular target: T5, PTH1R-Y134S; test: as above; format: cell-based; conditions: 30 nM TMR ligand (unlabeled: 10 nM), 30 min
Source text: as §6, §7

[20] = molecular target: T1, PTH1R-E35K; test: as above; format: cell-based; conditions: 30 nM TMR ligand (unlabeled: 10 nM), 30 min
Source text: as §6, §7

CC[C@H](C)[C@H](NC(=O)[C@H](CCC(=O)O)NC(=O)[C@H](CO)NC(=O)[C@@H](NC(=O)[C@@H](N)CO)C(C)C)C(=O)N[C@@H](CCC(N)=O)C(=O)N[C@@H](CC(C)C)C(=O)N[C@@H](CCSC)C(=O)N[C@@H](Cc1c[nH]cn1)C(=O)N[C@@H](CC(N)=O)C(=O)N[C@@H](CC(C)C)C(=O)NCC(=O)N[C@@H](CCCCN)C(=O)N[C@@H](Cc1c[nH]cn1)C(=O)N[C@@H](CC(C)C)C(=O)N[C@@H](CC(N)=O)C(=O)N[C@@H](CO)C(=O)N[C@@H](CCSC)C(=O)N[C@@H](CCC(=O)O)C(=O)N[C@@H](CCCNC(=N)N)C(=O)N[C@H](C(=O)N[C@@H](CCC(=O)O)C(=O)N[C@@H](Cc1c[nH]c2ccccc12)C(=O)N[C@@H](CC(C)C)C(=O)N[C@@H](CCCNC(=N)N)C(=O)N[C@@H](CCCCN)C(=O)N[C@@H](CCCCN)C(=O)N[C@@H](CC(C)C)C(=O)N[C@@H](CCC(N)=O)C(=O)N[C@@H](CC(=O)O)C(=O)N[C@H](C(=O)N[C@@H](Cc1c[nH]cn1)C(=O)N[C@@H](CC(N)=O)C(=O)N[C@@H](Cc1ccccc1)C(N)=O)C(C)C)C(C)C [PTH(1-34)]
Emax [1]: 106 ± 5%
Emax [2]: 48 ± 6%
Emax ([3]; read-out: Emax of that attained on PTH1R-WT): ~80%
Emax ([3]; read-out: cAMP Emax): 81 ± 10%
Emax [4]: 100%
Emax [5]: 96 ± 4%

AVAEIQL MH QR AKWIQD AR R R AFL H KL IAEIH TAEI.OH [LA-PTH]
residual cAMP signaling at end of washout, in words [6]: elevated for all PTH1R variants
response upon ligand rechallenge, in words [7]: significantly blunted

AVAEIQLnLHQRAKWIQDARRRAFLHKLIAEIHTAEY.NH2 [125I-LA-PTH*, radioligand prepared by chloramine T oxidation with 125I-Na]
maximum specific binding (SB) of radioligand [8]: 107 ± 14%
maximum specific binding (SB) of radioligand [9]: 100 ± 0%
maximum specific binding (SB) of radioligand [10]: 114 ± 22%
maximum specific binding (SB) of radioligand [11]: 93 ± 14%
maximum specific binding (SB) of radioligand ([12]; % of maximum SB at PTHR1-WT): 89 ± 11%
fit maximum SB of radioligand ([12]; non-specific binding subtracted): 5,179±936 cpm

AVSEH QL L H D KGKSIQD L R R R FFL H H L IAEIH TAEY.N H 2 [125I-PTHrP(1-36), radioligand prepared by chloramine T oxidation with 125I-Na]
total binding vs PTH1R-WT, in words [13]: comparable to that on PTH1R-WT
reduction of total binding vs PTH1R-WT [14]: ~ 50%
reduction of total binding vs PTH1R-WT [15]: ~ 50%
total binding vs PTH1R-WT, in words [16]: comparable to that on PTH1R-WT

AVSEH QL L H D KGrKSIQD L R R R FFL H H L IAEIH TAEI.N H 2 [PTHrP(1-36)^TMR, tetramethyl rhodamine attached to the epsilon amino function of lysine-13]
co-clustering of β-arrestin2YFP with ligand in endosomes, in words [17]: no co-clustering with β-arrestin2^YFP
co-clustering of β-arrestin2YFP with ligand in endosomes, in words [18]: robust co-clustering of the ligand in endosomes with β-arrestin2^YFP
co-clustering of β-arrestin2YFP with ligand in endosomes, in words [19]: no co-clustering with β-arrestin2^YFP
co-clustering of β-arrestin2YFP with ligand in endosomes, in words [20]: no co-clustering with β-arrestin2^YFP
